# ChEMBL document CHEMBL5143708, “New antimalarials identified by a cell-based phenotypic approach: Structure-activity relationships of 2,3,4,9-tetrahydro-1H-β-carboline derivatives possessing a 2-((coumarin-5-yl)oxy)alkanoyl moiety” (Bioorg Med Chem, 2022)
# Active and inactive are the calls of the source. No cut-off for these calls is given here.
# How the values were obtained:
# [1] = Half life in ICR mouse at 40 mg/kg, ip; format: ADME, organism-based; settings: in vivo
# [2] = Cytotoxicity against human HL-60 cells assessed as reduction in cell viability after 48 hrs by Cell Count Reagent SF based assay; format: toxicity
# Plasmodium berghei [3] = experiment: Antimalarial activity against Plasmodium berghei ANKA infected in ICR mouse assessed as increase in body weight at 40 mg/kg, ip administered for 4 to 7 days after post-infection by Giemsa staining based microscopic analysis; format: functional, organism-based; settings: time 4-7 day
# Plasmodium berghei [4] = experiment: Antimalarial activity against Plasmodium berghei ANKA infected in ICR mouse assessed as increase in survival at 40 mg/kg, ip administered for 4 to 7 days after post-infection and measured on day 11 post-infection by Giemsa staining based microscopic analysis; format: functional, organism-based; settings: time 8.0 day
# [5] = Tmax in ICR mouse at 40 mg/kg, ip; format: ADME, organism-based; settings: in vivo
# Plasmodium falciparum [6] = experiment: Antiplasmodial activity against chloroquine-resistant Plasmodium falciparum Dd2 infected in human RBC assessed as reduction in parasite growth after 72 hrs by LDH assay; format: functional, organism-based; settings: Dd2, Erythrocyte
# Plasmodium berghei [7] = experiment: Antimalarial activity against Plasmodium berghei ANKA infected in ICR mouse assessed as increase in body weight at 200 mg/kg, ip administered for 4 to 7 days after post-infection and measured on day 11 post-infection by Giemsa staining based microscopic analysis; format: functional, organism-based; settings: time 8.0 day
# Plasmodium berghei [8] = experiment: Antimalarial activity against Plasmodium berghei ANKA infected in ICR mouse assessed as reduction in parasitemia level at 40 to 200 mg/kg, ip administered for 4 to 7 days after post-infection by Giemsa staining based microscopic analysis; format: functional, organism-based; settings: dose 40-200 mg/kg, time 4-7 day
# [9] = AUC in ICR mouse at 40 mg/kg, ip; format: ADME, organism-based; design: dose 40 mg/kg, route ip; settings: in vivo
# Plasmodium falciparum [10] = experiment: Antiplasmodial activity against Plasmodium falciparum 3D7 infected in human RBC assessed as reduction in parasite growth after 72 hrs by LDH assay; format: functional, organism-based; settings: 3D7, Erythrocyte
# [11] = Cmax in ICR mouse at 40 mg/kg, ip; format: ADME, organism-based; design: dose 40 mg/kg, route ip; settings: in vivo
# Plasmodium berghei [12] = experiment: Antimalarial activity against Plasmodium berghei ANKA infected in ICR mouse assessed as increase in survival at 200 mg/kg, ip administered for 4 to 7 days after post-infection and measured on day 19 post-infection by Giemsa staining based microscopic analysis; format: functional, organism-based; settings: time 16.0 day
# [13] = Toxicity in ICR mouse infected with Plasmodium berghei ANKA assessed as decrease in body weight at 200 mg/kg, ip administered for 4 to 7 days after post-infection by Giemsa staining based microscopic analysis; format: organism-based; settings: in vivo, time 4-7 day
# Plasmodium falciparum [14] = experiment: Antiplasmodial activity against chloroquine-resistant Plasmodium falciparum K1 infected in human RBC assessed as reduction in parasite growth after 72 hrs by LDH assay; format: functional, organism-based; settings: K1, Erythrocyte
# [15] = Toxicity in ICR mouse infected with Plasmodium berghei ANKA assessed as decrease in body weight at 200 mg/kg, ip administered for 4 to 7 days after post-infection and measured on day 18 post-infection by Giemsa staining based microscopic analysis; format: organism-based; settings: in vivo, 360 h, time 15 day
SMILES,IC50 at 48 h [2] [nM],IC50 (Plasmodium falciparum [10]) [nM],further results
CCCCc1cc(=O)oc2cc(C)cc(O[C@H](C)C(=O)N3Cc4[nH]c5ccccc5c4C[C@H]3C(=O)OC)c12,> 3000,2,half-life [1]: 2.14 h; Activity (Plasmodium berghei [3]): Active; Activity (Plasmodium berghei [4]): Active; Tmax [5]: 2 h; IC50 (Plasmodium falciparum [6]): 2.2 nM; Activity (Plasmodium berghei [7]): Active; Activity (Plasmodium berghei [8]): Active; AUC [9]: 25600 ng·h/mL; Cmax [11]: 7120 ng/mL; Activity (Plasmodium berghei [12]): Active; Activity [13]: Toxic; IC50 (Plasmodium falciparum [14]): 2.6 nM; Activity [15]: Toxic
COC(=O)[C@@H]1Cc2c([nH]c3ccccc23)CN1C(=O)[C@@H](C)Oc1cc(C)cc2oc(=O)cc(CC3CC3)c12,> 3000,3.5,–
CCCCc1cc(=O)oc2cc(C)cc(O[C@@H](C)C(=O)N3Cc4[nH]c5ccccc5c4C[C@H]3C(=O)OC)c12,> 3000,190,–
CCCCc1cc(=O)oc2cc(C)cc(O[C@H](C)C(=O)N3Cc4[nH]c5ccc(F)cc5c4C[C@H]3C(=O)OC)c12,> 3000,5.5,–
CCCCc1cc(=O)oc2cc(C)cc(OCC(=O)N3Cc4[nH]c5ccccc5c4C[C@H]3C(=O)OC)c12,> 3000,20,IC50 (Plasmodium falciparum [6]): 24 nM; IC50 (Plasmodium falciparum [14]): 20 nM
CCCCc1cc(=O)oc2cc(C)cc(OC(C(=O)N3Cc4[nH]c5ccccc5c4C[C@H]3C(=O)OC)C(C)C)c12 (some centres undefined),> 3000,6.4,–
CCCCc1cc(=O)oc2cccc(O[C@H](C)C(=O)N3Cc4[nH]c5ccccc5c4C[C@H]3C(=O)OC)c12,> 3000,4.1,–
CCCCc1cc(=O)oc2cc(C)cc(O[C@H](C)C(=O)N[C@@H](Cc3c[nH]c4ccccc34)C(=O)OC)c12,> 3000,55,–
CCCCc1cc(=O)oc2cc(C)cc(O[C@H](C)C(=O)N3Cc4[nH]c5ccccc5c4C[C@H]3C(C)=O)c12,> 3000,5.6,–
CCCc1cc(=O)oc2cc(C)cc(O[C@H](C)C(=O)N3Cc4[nH]c5ccccc5c4C[C@H]3C(=O)OC)c12,> 3000,1.9,IC50 (Plasmodium falciparum [6]): 2.1 nM; IC50 (Plasmodium falciparum [14]): 1.9 nM
CCCCc1cc(=O)oc2cc(C)cc(O[C@H](C)C(=O)N3Cc4[nH]c5ccccc5c4C[C@H]3C(=O)OCC)c12,> 3000,55,–
COC(=O)[C@@H]1Cc2c([nH]c3ccccc23)CN1C(=O)[C@@H](C)Oc1cc(C)cc2oc(=O)cc(C)c12,> 3000,40,–
CCCCc1cc(=O)oc2cc(C)cc(OC(CCCC)C(=O)N3Cc4[nH]c5ccccc5c4C[C@H]3C(=O)OC)c12 (some centres undefined),> 3000,10,–
CCCCc1cc(=O)oc2cc(N3CCOCC3)cc(O[C@H](C)C(=O)N3Cc4[nH]c5ccccc5c4C[C@H]3C(=O)OC)c12,> 3000,210,–
CCCCc1cc(=O)oc2cc(C)cc(O[C@H](C)C(=O)N3CCc4c([nH]c5ccccc45)C3)c12,> 3000,72,–
CCCCc1cc(=O)oc2cc(C)cc(OC(CC)C(=O)N3Cc4[nH]c5ccccc5c4C[C@H]3C(=O)OC)c12 (some centres undefined),> 3000,7,–
CCCCc1cc(=O)oc2cc(C)cc(OC(CCC)C(=O)N3Cc4[nH]c5ccccc5c4C[C@H]3C(=O)OC)c12 (some centres undefined),> 3000,5.9,–
CCCCc1coc2cc(C)cc(O[C@H](C)C(=O)N3Cc4[nH]c5ccccc5c4C[C@H]3C(=O)OC)c12,> 3000,220,–
CCCCc1cc(=O)oc2cc(C)cc(OCC(=O)N3Cc4[nH]c5ccccc5c4C[C@@H]3C(=O)OC)c12,> 3000,980,–
CCc1cc(=O)oc2cc(C)cc(O[C@H](C)C(=O)N3Cc4[nH]c5ccccc5c4C[C@H]3C(=O)OC)c12,> 3000,11,–
CCCCc1coc2cc(C)cc(O[C@H](C)C(=O)N3Cc4[nH]c5ccccc5c4C[C@H]3C#N)c12,> 3000,110,–
CCCCc1cc(=O)oc2cc(C)cc(O[C@H](C)C(=O)N3Cc4[nH]c5ccccc5c4C[C@H]3C#N)c12,> 3000,4.1,–
CCCCc1cc(=O)oc2cc(Br)cc(O[C@H](C)C(=O)N3Cc4[nH]c5ccccc5c4C[C@H]3C(=O)OC)c12,> 3000,9.6,–
CCCCC(=O)c1c(OC)cc(C)cc1O[C@H](C)C(=O)N1Cc2[nH]c3ccccc3c2C[C@H]1C(=O)OC,> 3000,2400,–
CCCCc1cc(=O)oc2cc(C)cc(OC(C)C(=O)N3Cc4[nH]c5ccccc5c4C[C@H]3C(=O)OC)c12 (some centres undefined),> 3000,6.8,–
CCCCc1cc(=O)oc2cc(C)cc(OCC(=O)N3Cc4[nH]c5ccccc5c4C[C@H]3C(=O)NC)c12,> 3000,> 3000,–
